Source: patent US6770596B1, “Fused tricyclic compounds, process for their preparation, and herbicidal compositions containing them” (Ishihara Sangyo Kaisha Ltd., priority 2002, dated 2004)

How the values were obtained:
Format in all cases: in vivo
[1] = tested on: redroot pigweed (Amaranthus retroflexus, AMR); assay: Pre-emerge test, redroot pigweed; conditions: 250 g ai/ha, 14 days after application, rating scale 0-100 (0 no damage, 100 complete death)
How it was run: (§1)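 Greenhouse pre-emergence screen: track-sprayer application of compounds in acetone at 187 l/ha, rates 8 g ai/ha to 1000 g ai/ha, one day after planting in sandy loam pots. Damage scored at 14 days, 0 (none) to 100 (all plants dead).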

[2] = tested on: velvetleaf (Abutilon theophrasti, ABT); assay: Pre-emerge test, velvetleaf; conditions: 250 g ai/ha, 14 days after application, rating scale 0-100 (0 no damage, 100 complete death)
How it was run: as §1

[3] = tested on: sicklepod (Cassia obtusifolia, CAO); assay: Pre-emerge test, sicklepod; conditions: 250 g ai/ha, 14 days after application, rating scale 0-100 (0 no damage, 100 complete death)
How it was run: as §1

[4] = tested on: ivyleaf morningglory (Ipomoea hederacea, IPH); assay: Pre-emerge test, ivyleaf morningglory; conditions: 250 g ai/ha, 14 days after application, rating scale 0-100 (0 no damage, 100 complete death)
How it was run: as §1

[5] = tested on: lambsquarters (Chenopodium album, CHA); assay: Pre-emerge test, lambsquarters; conditions: 250 g ai/ha, 14 days after application, rating scale 0-100 (0 no damage, 100 complete death)
How it was run: as §1

[6] = tested on: common ragweed (Ambrosia artemisiifolia L., AML); assay: Pre-emerge test, common ragweed; conditions: 250 g ai/ha, 14 days after application, rating scale 0-100 (0 no damage, 100 complete death)
How it was run: as §1

[7] = tested on: cocklebur (Xanthium strumariunt, XAS); assay: Pre-emerge test, cocklebur; conditions: 250 g ai/ha, 14 days after application, rating scale 0-100 (0 no damage, 100 complete death)
How it was run: as §1

[8] = tested on: green foxtail (Setaria viridis, SEV); assay: Pre-emerge test, green foxtail; conditions: 250 g ai/ha, 14 days after application, rating scale 0-100 (0 no damage, 100 complete death)
How it was run: as §1

[9] = tested on: barnyardgrass (Echinachloa crus-galli, ECC); assay: Pre-emerge test, barnyardgrass; conditions: 250 g ai/ha, 14 days after application, rating scale 0-100 (0 no damage, 100 complete death)
How it was run: as §1

[10] = tested on: johnsongrass (Sorghum halepense, SOH); assay: Pre-emerge test, johnsongrass; conditions: 250 g ai/ha, 14 days after application, rating scale 0-100 (0 no damage, 100 complete death)
How it was run: as §1

[11] = tested on: large crabgrass (Digitaria sanguinalis, DIS); assay: Pre-emerge test, large crabgrass; conditions: 250 g ai/ha, 14 days after application, rating scale 0-100 (0 no damage, 100 complete death)
How it was run: as §1

[12] = tested on: field corn (Zea mays L., var. Dekalb 535, CORN); assay: Pre-emerge test, crop damage field corn
How it was run: (§2)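 Seeds planted 1 day pre-application in sandy loam soil mix; acetone solutions sprayed at 8 to 1000 g ai/ha (187 l/ha, flat fan nozzle, track sprayer). 14 d later, visual damage scored on a 0–100 scale.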

[13] = tested on: soybean (Glycine max L., var. Pella 86, SOY); assay: Pre-emerge test, crop damage soybean
How it was run: as §2

[14] = tested on: upland rice (Oryza sp., var.Tebonnet, RICE); assay: Pre-emerge test, crop damage upland rice
How it was run: as §2

[15] = tested on: wheat (Triticum aestivum); assay: Pre-emerge test, crop damage wheat
How it was run: as §2

[16] = tested on: redroot pigweed (Amaranthus retroflexus, AMR); assay: Post-emerge test, redroot pigweed; conditions: 250 g ai/ha, 14 days after application, rating scale 0-100 (0 no damage, 100 complete death)
How it was run: (§3)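 Ratings of 0-100 (no damage to complete death) were recorded 14 days after a post-emergence acetone spray. The spray was applied at 8-1000 g ai/ha and 187 l/ha with 0.25% v/v surfactant, to plants at the 2-3 leaf stage in sandy loam pots.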

[17] = tested on: velvetleaf (Abutilon theophrasti, ABT); assay: Post-emerge test, velvetleaf; conditions: 250 g ai/ha, 14 days after application, rating scale 0-100 (0 no damage, 100 complete death)
How it was run: as §3

[18] = tested on: sicklepod (Cassia obtusifolia, CAO); assay: Post-emerge test, sicklepod; conditions: 250 g ai/ha, 14 days after application, rating scale 0-100 (0 no damage, 100 complete death)
How it was run: as §3

[19] = tested on: ivyleaf morningglory (Ipomoea hederacea, IPH); assay: Post-emerge test, ivyleaf morningglory; conditions: 250 g ai/ha, 14 days after application, rating scale 0-100 (0 no damage, 100 complete death)
How it was run: as §3

[20] = tested on: lambsquarters (Chenopodium album, CHA); assay: Post-emerge test, lambsquarters; conditions: 250 g ai/ha, 14 days after application, rating scale 0-100 (0 no damage, 100 complete death)
How it was run: as §3

[21] = tested on: common ragweed (Ambrosia artemisiifolia L., AML); assay: Post-emerge test, common ragweed; conditions: 250 g ai/ha, 14 days after application, rating scale 0-100 (0 no damage, 100 complete death)
How it was run: as §3

[22] = tested on: cocklebur (Xanthium strumariunt, XAS); assay: Post-emerge test, cocklebur; conditions: 250 g ai/ha, 14 days after application, rating scale 0-100 (0 no damage, 100 complete death)
How it was run: as §3

[23] = tested on: green foxtail (Setaria viridis, SEV); assay: Post-emerge test, green foxtail; conditions: 250 g ai/ha, 14 days after application, rating scale 0-100 (0 no damage, 100 complete death)
How it was run: as §3

[24] = tested on: barnyardgrass (Echinachloa crus-galli, ECC); assay: Post-emerge test, barnyardgrass; conditions: 250 g ai/ha, 14 days after application, rating scale 0-100 (0 no damage, 100 complete death)
How it was run: as §3

[25] = tested on: johnsongrass (Sorghum halepense, SOH); assay: Post-emerge test, johnsongrass; conditions: 250 g ai/ha, 14 days after application, rating scale 0-100 (0 no damage, 100 complete death)
How it was run: as §3

[26] = tested on: large crabgrass (Digitaria sanguinalis, DIS); assay: Post-emerge test, large crabgrass; conditions: 250 g ai/ha, 14 days after application, rating scale 0-100 (0 no damage, 100 complete death)
How it was run: as §3

[27] = tested on: field corn (Zea mays L., var. Dekalb 535, CORN); assay: Post-emerge test, crop damage field corn
How it was run: as §3

[28] = tested on: soybean (Glycine max L., var. Pella 86, SOY); assay: Post-emerge test, crop damage soybean
How it was run: as §3

[29] = tested on: upland rice (Oryza sp., var.Tebonnet, RICE); assay: Post-emerge test, crop damage upland rice
How it was run: as §3

[30] = tested on: wheat (Triticum aestivum); assay: Post-emerge test, crop damage wheat
How it was run: as §3

[31] = var. Dekalb 535, Zea mays (field corn), in vivo, 14 days
[32] = var. Pella 86, Glycine max (soybean), in vivo, 14 days
[33] = var. Tebonnet, Oryza sp. (upland rice), in vivo, 14 days
[34] = Triticum aestivum (wheat), in vivo, 14 days
[35] = pre-emerge, 250 g ai/ha, 14 days after application, rating scale 0-100 (0 no damage, 100 complete death)
[36] = post-emerge, 250 g ai/ha, 14 days after application, rating scale 0-100 (0 no damage, 100 complete death)

SMILES	Pre-emerge Herbicidal Activity AMR (phytotoxicity rating) [1]	Pre-emerge Herbicidal Activity ABT (phytotoxicity rating) [2]	Pre-emerge Herbicidal Activity CAO (phytotoxicity rating) [3]	Pre-emerge Herbicidal Activity IPH (phytotoxicity rating) [4]	Pre-emerge Herbicidal Activity CHA (phytotoxicity rating) [5]	Pre-emerge Herbicidal Activity AML (phytotoxicity rating) [6]	Pre-emerge Herbicidal Activity XAS (phytotoxicity rating) [7]	Pre-emerge Herbicidal Activity SEV (phytotoxicity rating) [8]	Pre-emerge Herbicidal Activity ECC (phytotoxicity rating) [9]	Pre-emerge Herbicidal Activity SOH (phytotoxicity rating) [10]	Pre-emerge Herbicidal Activity DIS (phytotoxicity rating) [11]	Post-emerge Herbicidal Activity AMR (phytotoxicity rating) [16]	Post-emerge Herbicidal Activity ABT (phytotoxicity rating) [17]	Post-emerge Herbicidal Activity CAO (phytotoxicity rating) [18]	Post-emerge Herbicidal Activity IPH (phytotoxicity rating) [19]	Post-emerge Herbicidal Activity CHA (phytotoxicity rating) [20]	Post-emerge Herbicidal Activity AML (phytotoxicity rating) [21]	Post-emerge Herbicidal Activity XAS (phytotoxicity rating) [22]	Post-emerge Herbicidal Activity SEV (phytotoxicity rating) [23]	Post-emerge Herbicidal Activity ECC (phytotoxicity rating) [24]	further results
Cn1nc(-c2c(F)cc3c4c2NC(=O)CN4C(=O)C(C)(C)O3)c(Cl)c1C(F)(F)F [1-52, 8-[4-Chloro-1-methyl-5-(trifluoromethyl)-1H-pyrazol-3-yl]-2,2-dimethyl-9-fluoro-5H-pyrazino[1,2,3-de]-1,4-benzoxazine-3,6(2H, 7H)-dione]	100	100	97	95	100	98	85	90	85	100	80	100	100	50	70	100	60	75	0	50	Pre-emerge crop damage CORN (phytotoxicity rating) [12, 31]: 50; Pre-emerge crop damage SOY (phytotoxicity rating) [13, 32]: 50; Pre-emerge crop damage RICE (phytotoxicity rating) [14, 33]: 0; Pre-emerge crop damage WHEAT (phytotoxicity rating) [15, 34]: 0; Post-emerge Herbicidal Activity SOH (phytotoxicity rating) [25]: 0; Post-emerge Herbicidal Activity DIS (phytotoxicity rating) [26]: 0; Post-emerge crop damage CORN (phytotoxicity rating) [27, 31]: 0; Post-emerge crop damage SOY (phytotoxicity rating) [28, 32]: 0; Post-emerge crop damage RICE (phytotoxicity rating) [29, 33]: 0; Post-emerge crop damage WHEAT (phytotoxicity rating) [30, 34]: 0
O=C1CN2C(=O)COc3cc(F)c(-c4ncc(C(F)(F)F)cc4Cl)c(c32)N1 [1-63]	100	100	99	100	100	100	100	100	100	100	100	100	100	50	100	100	45	100	100	100	Pre-emerge crop damage CORN (phytotoxicity rating) [12, 35]: 100; Pre-emerge crop damage SOY (phytotoxicity rating) [13, 35]: 50; Pre-emerge crop damage RICE (phytotoxicity rating) [14, 35]: 100; Pre-emerge crop damage WHEAT (phytotoxicity rating) [15, 35]: 90; Post-emerge Herbicidal Activity SOH (phytotoxicity rating) [25]: 99; Post-emerge Herbicidal Activity DIS (phytotoxicity rating) [26]: 80; Post-emerge crop damage CORN (phytotoxicity rating) [27, 36]: 20; Post-emerge crop damage SOY (phytotoxicity rating) [28, 36]: 100; Post-emerge crop damage RICE (phytotoxicity rating) [29, 36]: 75; Post-emerge crop damage WHEAT (phytotoxicity rating) [30, 36]: 30
Cn1nc(-c2c(F)cc3c4c2NC(=O)CN4C(=O)CO3)c(Cl)c1C(F)(F)F [1-13, 8-[4-Chloro-1-methyl-5-(trifluoromethyl)-1H-pyrazol-3-yl]-9-fluoro-5H-pyrazino[1,2,3-de]-1,4-benzoxazine-3,6(2H, 7H)-dione]	100	100	100	100	100	100	80	100	100	100	100	100	100	100	100	100	100	100	100	99	Pre-emerge crop damage CORN (phytotoxicity rating) [12, 31]: 90; Pre-emerge crop damage SOY (phytotoxicity rating) [13, 32]: 50; Pre-emerge crop damage RICE (phytotoxicity rating) [14, 33]: 90; Pre-emerge crop damage WHEAT (phytotoxicity rating) [15, 34]: 65; Post-emerge Herbicidal Activity SOH (phytotoxicity rating) [25]: 100; Post-emerge Herbicidal Activity DIS (phytotoxicity rating) [26]: 55; Post-emerge crop damage CORN (phytotoxicity rating) [27, 31]: 25; Post-emerge crop damage SOY (phytotoxicity rating) [28, 32]: 100; Post-emerge crop damage RICE (phytotoxicity rating) [29, 33]: 99; Post-emerge crop damage WHEAT (phytotoxicity rating) [30, 34]: 25
